{
  "source": "the NIST ThermoML archive (doi:10.1021/je900306v)",
  "conditions": "Liquid, Closed cell (Static) method",
  "note": "± gives the expanded uncertainty stated by the source.",
  "data": [
    {"compound": "FCC(F)(F)F", "note": "[1,1,1,2-tetrafluoroethane]", "values": [
      {"measurement": "vapor or sublimation pressure", "setting": "243.1 K", "result": "84.23 ± 2.2", "unit": "kPa"},
      {"measurement": "vapor or sublimation pressure", "setting": "248.08 K", "result": "106.12 ± 2.3", "unit": "kPa"},
      {"measurement": "vapor or sublimation pressure", "setting": "263.01 K", "result": "199.39 ± 2.9", "unit": "kPa"},
      {"measurement": "vapor or sublimation pressure", "setting": "283.03 K", "result": "412.95 ± 4.7", "unit": "kPa"},
      {"measurement": "vapor or sublimation pressure", "setting": "303.12 K", "result": "769.5 ± 8.1", "unit": "kPa"},
      {"measurement": "vapor or sublimation pressure", "setting": "328.05 K", "result": "1488 ± 15", "unit": "kPa"},
      {"measurement": "vapor or sublimation pressure", "setting": "352.93 K", "result": "2620.8 ± 27", "unit": "kPa"}
    ]},
    {"compound": "C=C(F)C(F)(F)F", "note": "[2,3,3,3-tetrafluoro-1-propene]", "values": [
      {"measurement": "vapor or sublimation pressure", "setting": "224.12 K", "result": "38.9 ± 2", "unit": "kPa"},
      {"measurement": "vapor or sublimation pressure", "setting": "228.21 K", "result": "48.3 ± 2", "unit": "kPa"},
      {"measurement": "vapor or sublimation pressure", "setting": "233.12 K", "result": "62 ± 2", "unit": "kPa"},
      {"measurement": "vapor or sublimation pressure", "setting": "234.21 K", "result": "65.5 ± 2", "unit": "kPa"},
      {"measurement": "vapor or sublimation pressure", "setting": "238.08 K", "result": "78.7 ± 2", "unit": "kPa"},
      {"measurement": "vapor or sublimation pressure", "setting": "243.03 K", "result": "98.8 ± 2", "unit": "kPa"},
      {"measurement": "vapor or sublimation pressure", "setting": "247.95 K", "result": "121.7 ± 2", "unit": "kPa"},
      {"measurement": "vapor or sublimation pressure", "setting": "252.91 K", "result": "149.2 ± 2", "unit": "kPa"},
      {"measurement": "vapor or sublimation pressure", "setting": "255.49 K", "result": "165.3 ± 2", "unit": "kPa"},
      {"measurement": "vapor or sublimation pressure", "setting": "257.7 K", "result": "180.4 ± 2", "unit": "kPa"},
      {"measurement": "vapor or sublimation pressure", "setting": "258.61 K", "result": "186.9 ± 2", "unit": "kPa"},
      {"measurement": "vapor or sublimation pressure", "setting": "263.14 K", "result": "221.7 ± 2.1", "unit": "kPa"},
      {"measurement": "vapor or sublimation pressure", "setting": "268.1 K", "result": "265.1 ± 2.1", "unit": "kPa"},
      {"measurement": "vapor or sublimation pressure", "setting": "272.98 K", "result": "313.9 ± 2.1", "unit": "kPa"},
      {"measurement": "vapor or sublimation pressure", "setting": "277.96 K", "result": "370.5 ± 2.1", "unit": "kPa"},
      {"measurement": "vapor or sublimation pressure", "setting": "283.09 K", "result": "437.1 ± 2.2", "unit": "kPa"},
      {"measurement": "vapor or sublimation pressure", "setting": "288.08 K", "result": "509.4 ± 2.2", "unit": "kPa"},
      {"measurement": "vapor or sublimation pressure", "setting": "292.87 K", "result": "587.3 ± 2.3", "unit": "kPa"},
      {"measurement": "vapor or sublimation pressure", "setting": "297.97 K", "result": "679.4 ± 2.4", "unit": "kPa"},
      {"measurement": "vapor or sublimation pressure", "setting": "303.12 K", "result": "783.2 ± 2.4", "unit": "kPa"},
      {"measurement": "vapor or sublimation pressure", "setting": "308.11 K", "result": "894.6 ± 2.6", "unit": "kPa"},
      {"measurement": "vapor or sublimation pressure", "setting": "313.09 K", "result": "1018 ± 2.7", "unit": "kPa"},
      {"measurement": "vapor or sublimation pressure", "setting": "315.59 K", "result": "1083.5 ± 2.7", "unit": "kPa"},
      {"measurement": "vapor or sublimation pressure", "setting": "318.08 K", "result": "1153 ± 2.8", "unit": "kPa"},
      {"measurement": "vapor or sublimation pressure", "setting": "320.61 K", "result": "1224 ± 2.9", "unit": "kPa"},
      {"measurement": "vapor or sublimation pressure", "setting": "323.11 K", "result": "1301.1 ± 3", "unit": "kPa"},
      {"measurement": "vapor or sublimation pressure", "setting": "325.58 K", "result": "1380 ± 3.1", "unit": "kPa"},
      {"measurement": "vapor or sublimation pressure", "setting": "333.06 K", "result": "1638.3 ± 3.4", "unit": "kPa"},
      {"measurement": "vapor or sublimation pressure", "setting": "338.05 K", "result": "1831 ± 3.7", "unit": "kPa"},
      {"measurement": "vapor or sublimation pressure", "setting": "343.02 K", "result": "2039 ± 3.9", "unit": "kPa"},
      {"measurement": "vapor or sublimation pressure", "setting": "348.01 K", "result": "2265.6 ± 4.2", "unit": "kPa"},
      {"measurement": "vapor or sublimation pressure", "setting": "352.98 K", "result": "2511.5 ± 4.6", "unit": "kPa"},
      {"measurement": "vapor or sublimation pressure", "setting": "357.97 K", "result": "2778.2 ± 4.9", "unit": "kPa"},
      {"measurement": "vapor or sublimation pressure", "setting": "362.94 K", "result": "3067.1 ± 5.3", "unit": "kPa"},
      {"measurement": "vapor or sublimation pressure", "setting": "365.93 K", "result": "3218.4 ± 5.4", "unit": "kPa"}
    ]}
  ]
}
